The subject of one data set is Hela cells. Details: method as in PMID 32213364. The note with it: from the leaves of Casearia kurzii; read-out: IC50 against Hela cells; cited from earlier work.
In data set [1] the test system is OVCAR-8 cells. Description: Sulforhodamine B (SRB) cell growth inhibitory assay. The data set is classed as cell-based, human. To be noted: for SI against OVCAR-8: ratio of IC50 against HOE cells to IC50 against OVCAR-8. How it is done:
(§1) The human ovarian cancer cell lines and normal human ovarian surface epithelial (HOE) cells were used in this study. Ovarian cancer cell lines (OVCAR-4 and OVCAR-8) were products of American tissue culture collection (ATCC). The HOE cells were purchased from Applied Biological Materials (ABM) Inc. (Vancouver, BC, Canada). The Rosewell Park Memorial Institute (RPMI 1640, Lonza) medium was used in the culturing of OVCAR-4, OVCAR-8, and HOE cells. The medium was supplemented with 2 mM glutamine, 10% foetal bovine serum (FBS), and 50 µg/mL penicillin streptomycin. These cells were incubated in a standard humidified incubator) at 37 °C, 5% carbon dioxide (CO2) conditions.
(§2) Sulforhodamine B (SRB) assay was used to determine the inhibition of cell proliferation by the studied compounds and plant extracts. Plant extracts/fractions (100 mg/mL) and pure compounds (20 mM) were prepared in DMSO. The 0.2% DMSO in growth media was added to the cells as vehicle-treated cells (negative control) while carboplatin was used as positive control. In the SRB assay, OVCAR-4, OVCAR-8, and HOE cells were seeded in 80 µL growth medium per each well in 96 well plates. OVCAR-4 and HOE were seeded at a density of 5000 cells per well while OVCAR-8 was seeded at a density of 2000 cells per well. The seeded plates were incubated for 24 h, after which 20 μL of plant extracts and natural compounds 1000 µg/mL and 200 µM (and their serial two-fold dilutions), respectively, were added at the indicated concentrations. The cell cultures were incubated at 37 °C under 5% CO2 for 72 h in a humidified atmosphere.
(§3) After 72 h, the medium was decanted, and the cells fixed with 0.1 mL of 10% TCA on ice for 30 min before drying. The cells were stained with 0.4% SRB, washed with 1% acetic acid three times and dried. Then, 0.1 mL of Tris-base (10 mM) was added to the plates to solubilise the protein-bound SRB dye. The absorbance at 570 nm was measured using a spectroscopic plate reader (Multi-mode microplate reader BioTEK Synergy 2, Winooski, VT, USA). The data were analysed by non-linear regression to fit a 4-parameter sigmoidal dose–response curve to determine IC50 values using GraphPad PRISM 6.0 software, Inc. (San Diego, CA, USA).
(§4) The IC50s were obtained from at least three repeated experiments. The mean IC50 was calculated, and the standard error of mean (SEM) was determined. Furthermore, a one way analysis of variance (ANOVA) and student t test were used to test if the difference in the mean of control and treatments and mean of treatment at different concentration were significant. A post hoc Dunnett test was used to determine which of the treatments was significant to the control while a Tukey test was used to determine which of the concentrations of a particular treatment were significant using GraphPad prism 6.

A further data set deals with OVCAR-4 cells. The data set is described as above. The format is cell-based, human. The procedure:
as §1, §2, §3, §4

Data set [2] has as its system OVCAR-4 and OVCAR-8 cells. Put plainly: SRB cell growth assay, result stated jointly for both cancer lines. The data set is classed as cell-based, human. To be noted: span over the two cell lines, read-out: IC50 against OVCAR-4 and OVCAR-8 cells. How it is done: as §1, §2, §3, §4
In data set [3] the test system is HOE cells (normal human ovarian surface epithelial). Put plainly: Sulforhodamine B (SRB) cell growth inhibitory assay. The format is cell-based. The note with it: for IC50: SRB, 72 h; for cytotoxic activity against HOE cells: compared with OVCAR-4 and OVCAR-8. The procedure: as §1, §2, §3, §4
Data set [4] deals with caspase 3/7 in OVCAR-4 cells. Description: Caspase-Glo 3/7 activity assay. The data set is classed as cell-based, human. To be noted: 10, 20 and/or 30 μM, 48 h, vs control, one-way ANOVA. The procedure:
(§5) Caspase 3/7 activities was measured using assay kits caspase-Glo 3/7 (Promega Corp., Madison, WI, USA) on a 96-well microplate. Briefly, the cells (OVCAR-4 and OVCAR-8) were seeded in 96 well plates at a cell density of 5000 cells/well in 80 μL growth media and exposed to 10, 20 and/or 30 μM of the natural compounds after 24 h incubation. After 48 h exposure to compound treatments, 25 μL of Caspase 3/7 Glo-reagent was added, and the cells were incubated in the dark at room temperature for 30 min on a gentle rocker. The luminescence was measured at […] by a BioTEK Synergy microplate reader (USA). A similar procedure was followed for caspase 8 and caspase 9 activity.

The test system of data set [5] is caspase 3/7 in OVCAR-8 cells. Description: Caspase-Glo 3/7 activity assay. The data set is classed as cell-based, human. The note with it: 10, 20 and/or 30 μM, 48 h, vs control, one-way ANOVA. The procedure:
as §5

Data set [6] has as its system caspase 8 in OVCAR-8 cells. Description: Caspase-Glo 8 activity assay. The format is cell-based, human. How it is done: as §5
For data set [7], the system named is caspase 9 in OVCAR-8 cells. Put plainly: Caspase-Glo 9 activity assay. The data set is classed as cell-based, human. The procedure: as §5
Data set [8] relates to OVCAR-8 cells. Description: Annexin V-FITC / propidium iodide flow cytometry. The format is cell-based, human. To be noted: 5, 10, and 20 µM, 48 h treatment. How it is done: The in vitro method of fluorescence-activated cell sorting (FACS) by Annexin V and propidium iodide (PI) staining was used to detect the change of cell population as reported. OVCAR-8 cells were seeded in 12 well plates at a density of 2 × 10^5 cells per well in 1 mL of growth media and incubated for 24 h before treatment with the tested compound and positive control. After treatment for 48 h, media were decanted into 15 mL tubes, and cell pellets were collected into the same tubes by trypsinisation, the cells were centrifuged at 150× g for 3 min and re-suspended into 1 mL growth media, which was transferred into sterile 2 mL Eppendorf tube, centrifuged at 300× g for 5 min at 4 °C. The media were aspirated, and the pellet was washed in cold PBS. The cells were centrifuged under the same conditions and the supernatant aspirated. Cells were washed in 500 µL annexin-V binding buffer and centrifuged at 300× g for 10 min, annexin-V binding buffer was aspirated, and the cell pellet was treated with 10 µL of annexin V-FITC in 100 µL of binding buffer. The cells were thoroughly mixed and incubated in the dark at room temperature for 15 min. After incubation, cells were washed in binding buffer and centrifuged at 300× g for 10 min. The buffer was aspirated, and cells were suspended in 500 µL binding buffer and subsequently 5 µL of PI was added for flow cytometry analysis.

A short description of data set [9]: Thermal stability (GC-MS conditions; heating followed by HPLC). The format is physicochemical. How it is done:
Briefly, 1.0–2.0 mg of the bioactive fractions and isolated compounds of J. insularis were dissolved in 200 μL of ethyl acetate and sonicated at <40 °C for 5 min. 1–2 μL of the solution was subsequently injected into gas chromatography mass spectrometry (GC-MS) system consisting of an Agilent 7890 coupled to Agilent MS model 5975C MSD (Agilent Technologies, Cold Spring, NY, USA). The gas chromatography started at 60 °C for 2 min and increased to 300 °C at the rate of 10 °C/min, which was held at 300 °C for 4 min at a constant helium pressure (10 psi). The mass spectra data were acquired in the scan mode in m/z range 40–1000.
The molecular formula of 1 was determined as C20H30O3 based on the observed molar mass of compound 1 (found, 318.2123 Da) by LC-HR-MS (Figure S4). […] The other observed compounds, 1a and 1b (Figure S5), were determined to be the thermal degradation products of compound 1 due to the presence of a γ–hydroxy unsaturated 5-membered lactone moiety (Figure 1) under high temperature conditions (60 °C–300 °C) for 30 min of GC-MS. […] Furthermore, the percentage of compound 1 in organic extracts was determined to be 34%. Thus, the composition of compound 1 in the plant material is 0.7% (dry weight), a very abundant secondary metabolite in the leave of J. insularis.

The mark [10] stands for this setting: Homo sapiens, OVCAR-8, SRB, 72 h, mean ± SEM, read-out: growth inhibitory activity, IC50, OVCAR-8.
The mark [11] stands for this setting: Homo sapiens, OVCAR-8, SRB, 72 h, same IC50 given in μg/mL, read-out: growth inhibitory activity, IC50, OVCAR-8, in parentheses (converted).
The mark [12] stands for this setting: Homo sapiens, OVCAR-4, 72 h, mean ± SEM, read-out: growth inhibitory activity, IC50, OVCAR-4.
The mark [13] stands for this setting: Homo sapiens, OVCAR-4, 72 h, same IC50 given in μg/mL, read-out: growth inhibitory activity, IC50, OVCAR-4, in parentheses (converted).
Setting [14] is: Homo sapiens, mean ± SEM, read-out: growth inhibitory activity, IC50, HOE.
Setting [15] is: Homo sapiens, same IC50 given in μg/mL, read-out: growth inhibitory activity, IC50, HOE, in parentheses (converted).

Usually IC50 stands for the concentration that gives 50% inhibition.

Like-named read-outs stand apart in the source and are kept apart here.

As to Kurzipene B, the IC50 with Hela cells was 5.3 µM.

Regarding `N.N.O=C([O-])C1(C(=O)[O-])CCC1.[Pt+2]` [Carboplatin, carboplatin, reference compound], the IC50 in the data set with OVCAR-8 cells [1] (SRB, 72 h, mean ± SEM, read-out: growth inhibitory activity, IC50, OVCAR-8) is 8.2 ± 2.2 µM; in the data set on OVCAR-4 cells (72 h, mean ± SEM, read-out: growth inhibitory activity, IC50, OVCAR-4), 17.6 ± 4.6 µM; in data set [2], 8 to 18 µM; in [3] (mean ± SEM, read-out: growth inhibitory activity, IC50, HOE) it was 13 ± 3.7 µM. Further, the “SI against OVCAR-8” value with OVCAR-8 cells [1] was determined as 1.6.

For `CC1=CCC[C@@H]2[C@@](C)(CC/C(C=O)=C\C(=O)O)[C@H](C)CC[C@@]12C` [Compound 2, 16-oxo-cleroda-3,13(14)E-dien-15-oic acid], the IC50 in the data set on OVCAR-8 cells [1] (setting [10]) was 11.8 ± 0.5 µM; in the data set with OVCAR-8 cells [1] (setting [11]), 3.8 mg/L; in the data set with OVCAR-4 cells (setting [12]), 16.6 ± 2.8 µM; in the data set with OVCAR-4 cells (setting [13]) it was 5.3 mg/L; in data set [2] (Homo sapiens), 12 to 17 µM; in data set [3] (setting [14]), 22.8 ± 0.7 µM. For the same compound, the 50% inhibitory concentration (IC50) in data set [3] (setting [15]) was 7.3 mg/L. Also, in the data set with OVCAR-8 cells [1], the “SI against OVCAR-8” value is reported as 2. The “caspase 3/7 activities” value in [4] and in data set [5] was “significantly increased” each time. The “cytotoxic activity against HOE cells” value in [3] is reported as “less cytotoxic activity”.

Regarding `CC1=CCC[C@@H]2[C@@](C)(CCC3=CC(=O)OC3O)[C@H](C)CC[C@@]12C` (mixture of isomers) [Compound 1, 16(α/β)-hydroxy-cleroda-3,13(14)Z-dien-15,16-olide], the “caspase 8 activity” value in data set [6] was “increased”. Moreover, the IC50 was 1.42 mg/L in the data set with OVCAR-8 cells [1] (Homo sapiens, OVCAR-8, Figure S1 scheme, read-out: IC50 in OVCAR-8 (Figure S1)); 4.4 ± 0.2 µM in the data set on OVCAR-8 cells [1] (setting [10]); 1.4 mg/L in the data set with OVCAR-8 cells [1] (setting [11]); 5.7 ± 0.3 µM with OVCAR-4 cells (setting [12]); 1.8 mg/L in the data set on OVCAR-4 cells (setting [13]); 4 to 6 µM in [2] (Homo sapiens). Moreover, the concentration for half-maximal inhibition (IC50) is less than 6 µM in data set [2], 12.1 ± 0.1 µM in [3] (setting [14]) and 3.9 mg/L in [3] (setting [15]). The “SI against OVCAR-8” value with OVCAR-8 cells [1] was 3. The “caspase 9 activity” value in data set [7] is on record as “increased”. The “percentage of early and late apoptosis” value with OVCAR-8 cells [8] was “concentration-dependent and significant increase”. The “thermal stability, HPLC after heating” value in [9] (200 °C for 0.5 h followed by HPLC analysis) is listed as “formation of new products”. For the same compound, the “thermal stability” value in data set [9] (at a high temperature) was “thermally unstable”. Besides, the “caspase 3/7 activities” value in data set [4] and in [5] was “significantly increased” each time. In [3], the “cytotoxic activity against HOE cells” value is listed as “less cytotoxic activity”.
